Assay results published in patent publication US20030083271A1, “Topoisomerase I selective cytotoxic sugar derivatives of indolopyrrolocarbazoles” (priority 2001, published 2003).

How the values were obtained:
[1] = target: T1, purified human topoisomerase I (Homo sapiens, UniProt P11387); assay: Topoisomerase I-mediated single strand DNA break induction (in vitro); assay type: biochemical; details: median effect concentration for inducing single-strand breaks in the DNA substrate; read-out: Topo I EC50
T1 construct: purchased Topogen
T1 sequence (P11387 1-765): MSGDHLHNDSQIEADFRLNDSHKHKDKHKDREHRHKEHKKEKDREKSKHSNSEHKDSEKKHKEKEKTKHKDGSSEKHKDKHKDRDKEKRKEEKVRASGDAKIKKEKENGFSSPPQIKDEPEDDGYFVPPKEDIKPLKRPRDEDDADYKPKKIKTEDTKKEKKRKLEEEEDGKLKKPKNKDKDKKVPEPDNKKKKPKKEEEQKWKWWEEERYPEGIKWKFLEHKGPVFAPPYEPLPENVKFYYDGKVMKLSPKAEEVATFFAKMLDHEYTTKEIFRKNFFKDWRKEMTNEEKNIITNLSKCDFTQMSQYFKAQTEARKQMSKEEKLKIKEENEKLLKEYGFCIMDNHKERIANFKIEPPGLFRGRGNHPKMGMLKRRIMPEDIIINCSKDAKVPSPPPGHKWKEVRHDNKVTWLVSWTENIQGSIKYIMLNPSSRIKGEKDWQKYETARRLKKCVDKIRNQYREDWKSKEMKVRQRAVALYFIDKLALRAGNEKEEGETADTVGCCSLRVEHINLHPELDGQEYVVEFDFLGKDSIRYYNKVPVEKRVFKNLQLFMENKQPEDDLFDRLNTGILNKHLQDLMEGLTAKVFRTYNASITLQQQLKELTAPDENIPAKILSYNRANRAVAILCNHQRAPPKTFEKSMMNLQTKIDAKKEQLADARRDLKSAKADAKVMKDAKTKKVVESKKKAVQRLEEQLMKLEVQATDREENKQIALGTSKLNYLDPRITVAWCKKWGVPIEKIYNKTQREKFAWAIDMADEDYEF
Method in brief: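 Supercoiled PM2 DNA incubated with compound dilutions and 1000 units purified human topoisomerase I, 30 min at 37° C; stopped with SDS/proteinase K. Products separated on ethidium-stained agarose gel, quantified by densitometry as % single-strand breaks; EC50 interpolated from dose-effect curve.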

[2] = system: P388 murine leukemia cells; assay: In vitro cell-based cytotoxicity, parental P388 cells; details: Mus musculus, 72 h, median cytotoxic concentration, 3 days continuous exposure
Method in brief: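 P388 cells plated at 8,000 cells/well, compounds serially diluted 24 h later and incubated 72 h at 37° C. Viability by MTS (333 μg/ml final) with phenazine methosulfate (25 μM final), absorbance at 492 nm; IC50 is concentration reducing absorbance to 50% of untreated control.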

SMILES	EC50 [1] [nM]	IC50 [2] [nM]
O=C1NC(=O)c2c1c1c3cc(F)c(F)cc3sc1c1c2c2cc(F)c(F)cc2n1[C@@H]1O[C@H](CF)[C@@H](F)[C@H](O)[C@H]1O [Example 26, 12-[4,6-Difluoro-4,6-dideoxy-β-D-glucopyranosyl]-2,3,9,10-tetrafluoro-5H, 13H-benzo[b]thienyl[2,3-a]pyrrolo[3,4-c]carbazole-5,7(6H)-dione]	130	11
O=C1NC(=O)c2c1c1c3cc(F)c(F)cc3sc1c1c2c2cc(F)c(F)cc2n1[C@@H]1O[C@H](CO)[C@@H](F)[C@H](O)[C@H]1O [Example 33, 12-[4-Deoxy-4-fluoro-β-D-glucopyranosyl]-2,3,9,10-tetrafluoro-5H,13H-benzo[b]thienyl[2,3-a]pyrrolo[3,4-c]carbazole-5,7(6H)-dione]	50	< 3
O=C1NC(=O)c2c1c1c3cc(F)ccc3[nH]c1c1c2c2cc(F)ccc2n1[C@@H]1O[C@H](CO)[C@@H](F)[C@H](O)[C@H]1O [Example 24, 12-[4-Deoxy-4-fluoro-β-D-glucopyranosyl]-3,9-difluoro-12,13-dihydro-5H-indolo[2,3-a]pyrrolo[3,4-c]carbazole-5,7(6H)-dione]	20	2
O=C1NC(=O)c2c1c1c3cc(F)ccc3[nH]c1c1c2c2cc(F)ccc2n1[C@@H]1O[C@H](CF)[C@@H](F)[C@H](O)[C@H]1O [Example 27]	150	4
O=C1NC(=O)c2c1c1c3cc(F)c(F)cc3sc1c1c2c2cc(F)c(F)cc2n1[C@@H]1O[C@H](CF)C[C@H](O)[C@H]1O [Example 9, 12-[4,6-Dideoxy-6-fluoro-β-D-glucopyranosyl]-2,3,9,10-tetrafluoro-5H, 13H-benzo[b]thienyl[2,3-a]pyrrolo[3,4-c]carbazole-5,7(6H)-dione]	230	35
